Data reported in US20030095958A1, “Inhibitors of bace” (priority 2001, published 2003).

Molecular target: BACE (Homo sapiens, UniProt P56817)
Assay: Ki Determination for the Inhibition of BACE (FS-1 peptide fluorescence cleavage assay)
Assay type: biochemical
Settings: apparent Ki; 50 nM BACE, 10 μM FS-1 substrate, 0.1M sodium acetate pH 4.5
Method in brief: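 Apparent Ki values derive from fitting fluorescence progress data (355 nm excitation, 495 nm emission) of FS-1 peptide cleavage to an integrated competitive tight-binding model. Reactions held 50 nM BACE, 10 μM substrate and inhibitor in 2% DMSO, pH 4.5 acetate buffer, with a 15 min enzyme-compound preincubation at room temperature.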

Chain of BACE (P56817 46-501): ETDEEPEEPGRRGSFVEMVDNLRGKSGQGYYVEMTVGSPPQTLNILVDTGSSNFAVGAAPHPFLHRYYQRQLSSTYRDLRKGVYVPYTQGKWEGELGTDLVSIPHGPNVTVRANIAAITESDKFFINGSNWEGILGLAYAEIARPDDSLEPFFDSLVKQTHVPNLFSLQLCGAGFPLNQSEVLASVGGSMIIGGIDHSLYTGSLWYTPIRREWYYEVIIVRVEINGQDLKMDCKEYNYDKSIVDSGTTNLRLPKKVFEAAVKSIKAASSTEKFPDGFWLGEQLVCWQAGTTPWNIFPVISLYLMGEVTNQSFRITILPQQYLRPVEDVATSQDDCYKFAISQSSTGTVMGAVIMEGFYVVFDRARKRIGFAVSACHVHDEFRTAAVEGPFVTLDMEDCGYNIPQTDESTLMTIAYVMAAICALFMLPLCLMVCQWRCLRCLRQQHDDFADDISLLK

| SMILES | Ki [µM] |
| --- | --- |
| O=S(=O)(Nc1cc(-c2ccc(Cl)c(Cl)c2)ccc1N1CCNCC1)c1ccc(-c2cccc(Cl)c2)cc1 [Compound 180, 3′-Chloro-biphenyl-4-sulfonic acid (3′,4′-dichloro-4-piperazin-1-yl-biphenyl-3-yl)-amide] | 3 to 30 |
| O=C(Nc1cc(F)c(-c2ccccc2)cc1N1CCNCC1)c1cccc2ccccc12 [Compound 158, Naphthalene-1-carboxylic acid (2-fluoro-5-piperazin-1-yl-biphenyl-4-yl)-amide] | 3 to 30 |
| O=C(Nc1cc(C(F)(F)F)ccc1N1CCNCC1)Oc1ccc2ccccc2c1 [Compound 151, (2-Piperazin-1-yl-5-trifluoromethyl-phenyl)-carbamic acid naphthalen-2-yl ester] | 3 to 30 |
| O=C(Nc1cc(C(F)(F)F)cc(NC(=O)c2cccc3ccccc23)c1N1CCNCC1)c1cccc2ccccc12 [Compound 127, 4-{2,6-Bis-[(naphthalene-1-carbonyl)-amino]-4-trifluoromethyl-phenyl}-piperazine] | 3 to 30 |
| O=C(Nc1cc(-c2cccc(Cl)c2)ccc1N1CCNCC1)c1cccc2ccccc12 [Compound 123, Naphthalene-1-carboxylic acid (3′-chloro-4-piperazin-1-yl-biphenyl-3-yl)-amide] | 3 to 30 |
| O=C(Nc1cc(-c2ccoc2)c(COc2ccccc2C(F)(F)F)cc1N1CCNCC1)c1nccc2ccccc12 [Compound 187, Isoquinoline-1-carboxylic acid [5-furan-3-yl-2-piperazin-1-yl-4-(2-trifluoromethyl-phenoxymethyl)-phenyl]-amide] | < 3 |
| Cc1cccc(Oc2ccc(N3CCNCC3)c(NC(=O)c3cccc4ccccc34)c2)c1 [Compound 141, Naphthalene-1-carboxylic acid (2-piperazin-1-yl-5-m-tolyloxy-phenyl)-amide] | 3 to 30 |
| O=S(=O)(Nc1cc(C(F)(F)F)ccc1N1CCNCC1)c1ccc2ccccc2c1 [Compound 136, Naphthalene-2-sulfonic acid (2-piperazin-1-yl-5-trifluoromethyl-phenyl)-amide] | > 30 |
| FC(F)(F)c1ccccc1OCc1cc(C2=CCNCC2)c(COc2ccccc2C(F)(F)F)cc1C1=CCNCC1 [Compound 334, 4-[4-(1,2,3,6-Tetrahydro-pyridin-4-yl)-2,5-bis-(2-trifluoromethyl-phenoxymethyl)-phenyl]-1,2,3,6-tetrahydro-pyridine] | 3 to 30 |
| O=C(Nc1cc(-c2cc(Cl)cc(Cl)c2Cl)ccc1N1CCNCC1)c1cccc2ccccc12 [Compound 109, Naphthalene-1-carboxylic acid (2′,3′,5′-trichloro-4-piperazin-1-yl-biphenyl-3-yl)-amide] | < 3 |
| O=C(Cc1cccc2ccccc12)Nc1cc(C(F)(F)F)ccc1N1CCNCC1 [Compound 134, 2-Naphthalen-1-yl-N-(2-piperazin-1-yl-5-trifluoromethyl-phenyl)-acetamide] | > 30 |
| O=C(OCc1ccc(COc2ccccc2C(F)(F)F)cc1C1=CCNCC1)Oc1ccc2ccccc2c1 [Compound 319, Carbonic acid naphthalen-2-yl ester 2-(1,2,3,6-tetrahydro-pyridin-4-yl)-4-(2-trifluoromethyl-phenoxymethyl)-benzyl ester] | < 3 |
| O=C(OCc1ccc(COc2ccccc2C(F)(F)F)cc1C1=CCNCC1)c1cccc2ccccc12 [Compound 312, Naphthalene-1-carboxylic acid 2-(1,2,3,6-tetrahydro-pyridin-4-yl)-4-(2-trifluoromethyl-phenoxymethyl)-benzyl ester] | < 3 |
| N#Cc1ccc(-c2ccc(N3CCNCC3)c(NC(=O)c3cccc4ccccc34)c2)cc1 [Compound 131, Naphthalene-1-carboxylic acid (4′-cyano-4-piperazin-1-yl-biphenyl-3-yl)-amide] | 3 to 30 |
| O=C(Nc1cc(C(F)(F)F)c(-c2cc(Cl)ccc2Cl)cc1N1CCNCC1)c1cccc2ccccc12 [Compound 169, Naphthalene-1-carboxylic acid (2′,5′-dichloro-5-piperazin-1-yl-2-trifluoromethyl-biphenyl-4-yl)-amide] | < 3 |
| O=C(Nc1ccc(-c2ccc(C(F)(F)F)cc2)cc1N1CCNCC1)c1cccc2ccccc12 [Compound 174, Naphthalene-1-carboxylic acid (3-piperazin-1-yl-4′-trifluoromethyl-biphenyl-4-yl)-amide] | < 3 |
| O=C(Nc1cc(-c2ccc(S(=O)(=O)NCc3ccccc3)c(F)c2)ccc1N1CCNCC1)c1cccc2ccccc12 [Compound 163, Naphthalene-1-carboxylic acid (4′-benzylsulfamoyl-3′-fluoro-4-piperazin-1-yl-biphenyl-3-yl)-amide] | < 3 |
| COC(=O)c1cc(OCc2ccc(COc3ccccc3C(F)(F)F)cc2C2=CCNCC2)cc(C(=O)OC)c1 [Compound 330, 5-[2-(1,2,3,6-Tetrahydro-pyridin-4-yl)-4-(2-trifluoromethyl-phenoxymethyl)-benzyloxy]-isophthalic acid dimethyl ester] | < 3 |
| O=C(Nc1cccc2ccccc12)c1ccc(COc2ccccc2C(F)(F)F)cc1C1=CCNCC1 [Compound 322, N-Naphthalen-1-yl-2-(1,2,3,6-tetrahydro-pyridin-4-yl)-4-(2-trifluoromethyl-phenoxymethyl)-benzamide] | 3 to 30 |
| O=C(NCc1ccco1)C1CNCCC1c1ccc(COc2ccccc2C(F)(F)F)cc1 (stereo not drawn) [Compound 203, 4-[4-(2-Trifluoromethyl-phenoxymethyl)-phenyl]-piperidine-3-carboxylic acid (furan-2-ylmethyl)-amide] | > 30 |
| O=C(Nc1ccc(-c2ccc(Cl)c(Cl)c2)nc1N1CCNCC1)c1cccc2ccccc12 [Compound 227, Naphthalene-1-carboxylic acid [6-(3,4-dichloro-phenyl)-2-piperazin-1-yl-pyridin-3-yl]-amide] | < 3 |
| O=C(Nc1cc(-c2ccc(S(=O)(=O)NC3CCCCC3)cc2)ccc1N1CCNCC1)c1cccc2ccccc12 [Compound 147, Naphthalene-1-carboxylic acid (4′-cyclohexylsulfamoyl-4-piperazin-1-yl-biphenyl-3-yl)-amide] | < 3 |

Second part, the molecule after the results:

| Ki [µM] | SMILES |
| --- | --- |
| < 3 | FC(F)(F)c1ccccc1OCc1cc(-c2ccsc2)c(COc2ccccc2C(F)(F)F)cc1C1=CCNCC1 [Compound 342, 4-[4-Thiophen-3-yl-2,5-bis-(2-trifluoromethyl-phenoxymethyl)-phenyl]-1,2,3,6-tetrahydro-pyridine] |
| < 3 | Oc1cccc(-c2cc(COc3ccccc3C(F)(F)F)c(C3=CCNCC3)cc2COc2ccccc2C(F)(F)F)c1 [Compound 351, 4′-(1,2,3,6-Tetrahydro-pyridin-4-yl)-2′,5′-bis-(2-trifluoromethyl-phenoxymethyl)-biphenyl-3-ol] |
| < 3 | O=C(c1ccc2ccccc2c1)n1c2c(c3cc(OCc4ccc(C(F)(F)F)cc4)ccc31)CCNC2 [Compound 536, Naphthalen-2-yl-[6-(4-trifluoromethyl-benzyloxy)-1,2,3,4-tetrahydro-b-carbolin-9-yl]-methanone] |
| < 3 | O=C(OCc1cc(C2=CCNCC2)c(COc2ccccc2C(F)(F)F)cc1-c1ccoc1)c1cccnc1Cl [Compound 386, 2-Chloro-nicotinic acid 2-furan-3-yl-5-(1,2,3,6-tetrahydro-pyridin-4-yl)-4-(2-trifluoromethyl-phenoxymethyl)-benzyl ester] |
| 3 to 30 | CC(NC(=O)C1CNCCC1c1ccc(-c2ccccc2)cc1)c1cccc2ccccc12 (stereo not drawn) [Compound 407] |
| < 3 | O=[N+]([O-])c1ccccc1-c1cc(COc2ccccc2C(F)(F)F)c(C2=CCNCC2)cc1COc1ccccc1C(F)(F)F [Compound 344, 4-[2′-Nitro-2,5-bis-(2-trifluoromethyl-phenoxymethyl)-biphenyl-4-yl]-1,2,3,6-tetrahydro-pyridine] |
| < 3 | O=C(c1cccc2ccccc12)n1c2c(c3cc(OCc4ccccc4I)ccc31)CCNC2 [Compound 528, [6-(2-Iodo-benzyloxy)-1,2,3,4-tetrahydro-b-carbolin-9-yl]-naphthalen-1-yl-methanone] |
| < 3 | c1ccc2cc(COc3ccc4c(c3)c3c(n4Cc4ccc5ccccc5c4)CNCC3)ccc2c1 [Compound 519, 6-(Naphthalen-2-ylmethoxy)-9-naphthalen-2-ylmethyl-2,3,4,9-tetrahydro-1H-b-carboline] |
| 3 to 30 | Oc1ccccc1-c1ccc(C2=CCNCC2)c(COc2ccccc2C(F)(F)F)c1 [Compound 362, 4′-(1,2,3,6-Tetrahydro-pyridin-4-yl)-3′-(2-trifluoromethyl-phenoxymethyl)-biphenyl-2-ol] |
| < 3 | FC(F)(F)c1ccc(COc2ccc3c(c2)c2c(n3Cc3cccc4ccccc34)CNCC2)cc1 [Compound 533, 9-Naphthalen-1-ylmethyl-6-(4-trifluoromethyl-benzyloxy)-2,3,4,9-tetrahydro-1H-b-carboline] |
| 3 to 30 | CC(NC(=O)C1CNCCC1c1ccc(-c2ccccc2)cc1)c1cccc2ccccc12 (stereo not drawn) [Compound 405] |
| < 3 | O=C(c1ccc2ccccc2c1)n1c2c(c3cc(OCc4ccc(OC(F)F)cc4)ccc31)CCNC2 [Compound 515, [6-(4-Difluoromethoxy-benzyloxy)-1,2,3,4-tetrahydro-b-carbolin-9-yl]-naphthalen-2-yl-methanone] |
| < 3 | FC(F)(F)c1ccccc1OCc1cc(-c2cccs2)c(COc2ccccc2C(F)(F)F)cc1C1=CCNCC1 [Compound 345, 4-[4-Thiophen-2-yl-2,5-bis-(2-trifluoromethyl-phenoxymethyl)-phenyl]-1,2,3,6-tetrahydro-pyridine] |
| 3 to 30 | FC(F)(F)c1ccccc1OCc1cc(-c2ccc(Cl)c(Cl)c2)c(COc2ccccc2C(F)(F)F)cc1C1=CCNCC1 [Compound 335, 4-[3′,4′-Dichloro-2,5-bis-(2-trifluoromethyl-phenoxymethyl)-biphenyl-4-yl]-1,2,3,6-tetrahydro-pyridine] |
